Test results published in US10570179B2, “Substituted urea depsipeptide analogs as activators of the CLPP endopeptidase” (priority 2016, dated 2020).
Converted amounts (≈) assume the structure as drawn. Where two headings read alike, the source gives them in different places. Numbered stars: 1 amine (or outer) side, 2 acyl side, 3 side chain; on linkers, the order of the positions; unused ones are H or OH. Bridge positions count the residues as written; N and C are the ends. Square brackets hold non-standard residues; d marks the D form. Peptide text beside a SMILES is read from it. * marks the point of attachment. Phe(3-Me) = Cc1cccc(C[C@H](N)C(=O)O)c1; Hyp = O=C(O)[C@@H]1C[C@@H](O)CN1; NH(3-Cl-phenyl) = Clc1cccc(N*)c1; aThr = C[C@H](O)[C@H](N)C(=O)O; Pip = O=C(O)[C@@H]1CCCCN1; CO = O=C([*:1])[*:2]

Tests used:
S. aureus ClpP (Sa-ClpP) = target: T1, S. aureus ClpP (Sa-ClpP) (Staphylococcus aureus, UniProt Q2G036); assay: Casein-BODIPY digestion assay (ClpP activation); format: biochemical
T1 construct: made in house; host or cells: E. coli BL21 (DE3)
Method: The compounds were assayed in a casein digestion assay in order to determine their effect on ClpP activation. Briefly, the assay was carried out using S. aureus ClpP (“Sa-ClpP”) overexpressed in E. coli BL21 (DE3) and purified in a two-step process. Purity of the protein was assessed through SDS PAGE analysis. EC50 evaluations were conducted in triplicate in a 20 μl assay format using a method adapted from Maurizi et al. (Methods Enzymol. (1994) 244:314-331). Each well contained 10 μM saClpP, 25 μg/ml BODIPY FL casein (Invitrogen Corporation, San Diego, Calif.), and test compound in concentrations ranging between 0-1000 μM in assay buffer (50 mM Tris pH 8, 200 mM KCl, and 1 mM TCEP). The reaction took place at 37° C. Fluorescence (excitation 485 nm; emission 528 nm) was measured in five minute intervals over a 45 min period using a BioTek HT fluorescence microplate reader (BioTek Instruments, Inc., Winooski, Vt.). Velocity of each reaction was calculated and data was fit to a dose response curve using GraphPad Prism® software (GraphPad Software, Inc., La Jolla, Calif.). EC50 is the effective concentration of compound which causes 50% activation of S. aureus ClpP in the foregoing BODIPY FL casein assay.
Alternatively, the assay was carried out using EnzCheck Protease Assay (Molecular Probes, Catalog # E6638). The assay was performed in black 384 well, flat bottom, low volume plates (Greiner Bio-One, Monroe, N.C., catalog #784076). 10 μL of Tris.HCl buffer, pH 8.0 with 0.01% Triton X-100 was pipetted into each well using a Well-Mate (Thermo Scientific, Waltham, Mass.). 0.4 μL test compounds or controls (2% DMSO v/v) were added to each well using a Biomek FX liquid handling robot (Beckman Coulter, Indianapolis, Ind.). After addition of test compounds and controls, 10 μL of master mix containing 2 μM Sa-ClpP and 2 μM substrate (Bodipy-FL labeled casein) in Tris.HCl buffer, pH 8.0 with 0.01% (v/v) Triton X-100, was pipetted into each well. All assays were performed in triplicate, under linear velocity conditions. Increase in fluorescent signal following activation of Sa-ClpP by test compounds and controls was measured over time period of 30 mins using filters with excitation at 485±15 nm and emission at 520±25 nm on a PHERAstar FS Multilabel reader (BMG, Cary, N.C.). Instrument gains and enzyme linear velocity conditions were determined and validated using ADEP4, a known Sa-ClpP activator. Data analysis was done by measuring rate of casein degradation over time (slopes). Computed degradation rates (slopes) were normalized to positive (ADEP4) or negative (DMSO) controls. Using nonlinear regression curve fitting EC50 values and % activation were determined using the equation “log [agonist] vs. Response-variable slope (four parameters)-symmetrical” in the program Prism 6 (GraphPad Software, La Jolla, Calif. USA, www.graphpad.com).

MRSA NRS70 = assay: Minimal inhibitory concentration, microbroth dilution; format: cell-based; settings: Staphylococcus aureus
Method: (§1) Minimal inhibitory concentrations (“MICs”) were determined using the microbroth dilution method according to Clinical Laboratory Standards Institute (CLSI; National, C.F. C. L. S., Methods for Dilution Antimicrobial Susceptibility Tests for Bacteria Grow aerobically-Seventh Edition: Approved Standard M7-A7, CLSI, Wayne, Pa., USA, 2008) and were read by visual inspection. Two fold serial dilutions of test compound in 100 μL of the appropriate broth media were first prepared in 96-well round bottom microtiter plates (Nalgene Nunc International, Rochester, N.Y., USA). An equivalent volume (100 μL) of bacterial broth inocula containing approximately 10^5 bacterial cfu/mL was added to each well to give final concentrations of test compound starting at 200 μM. The plates were then incubated aerobically at 37° C. All strains were incubated overnight. After incubations, in all cases the MIC was recorded as the lowest concentration of drug that prevented bacterial growth. The bacterial strains for which MIC was determined as described in Table 4.

E. faecails = assay: as above; format: cell-based; settings: Enterococcus faecalis
Method: as §1

S. aureus ATCC 29213 = assay: as above; format: cell-based; settings: Staphylococcus aureus
Method: as §1

S. aureus USA 300 = assay: as above; format: cell-based; settings: Staphylococcus aureus
Method: as §1

S. aureus ΔClpP = assay: as above; format: cell-based, Staphylococcus aureus; settings: MIC; ClpP inactivated
Method: as §1

[1] = MIC, read-out: Minimal Inhibitory Concentrations (μM) MRSA NRS70
[2] = MIC, read-out: Minimal Inhibitory Concentrations (μM) E. faecails
[3] = ATCC29213, MIC, read-out: Minimal Inhibitory Concentrations (μM) S. aureus ATCC 29213
[4] = USA300, MIC, read-out: Minimal Inhibitory Concentrations (μM) S. aureus USA 300
[5] = read-out: Minimal Inhibitory Concentrations (μM) MRSA NRS70, MIC
[6] = read-out: Minimal Inhibitory Concentrations (μM) E. faecails, MIC
[7] = ATCC29213, read-out: Minimal Inhibitory Concentrations (μM) S. aureus ATCC 29213, MIC
[8] = USA300, read-out: Minimal Inhibitory Concentrations (μM) S. aureus USA 300, MIC

T1 sequence (Q2G036 whole entry): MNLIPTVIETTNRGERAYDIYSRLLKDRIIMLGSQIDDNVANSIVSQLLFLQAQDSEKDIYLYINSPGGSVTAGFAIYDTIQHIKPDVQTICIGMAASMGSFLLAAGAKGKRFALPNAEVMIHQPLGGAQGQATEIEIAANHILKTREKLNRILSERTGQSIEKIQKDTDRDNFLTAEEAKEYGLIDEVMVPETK

Row | Structure (SMILES) | EC50 (S. aureus ClpP (Sa-ClpP)) | MIC (MRSA NRS70; [1]) | MIC (E. faecails; [2]) | MIC (S. aureus ATCC 29213; [3]) | MIC (S. aureus USA 300; [4]) | Minimal Inhibitory Concentrations (μM) S. aureus ΔClpP (S. aureus ΔClpP) | MIC (MRSA NRS70; [5]) | MIC (E. faecails; [6]) | MIC (S. aureus ATCC 29213; [7]) | MIC (S. aureus USA 300; [8])
1 | CCc1ccc(NC(=O)N[C@@H](Cc2cccc(C)c2)C(=O)N[C@H]2COC(=O)[C@@H]3C[C@H](C)CN3C(=O)[C@H](C)NC(=O)[C@@H]3CCCCN3C(=O)[C@@H]3CCCN3C2=O)cc1 [Compound 52, (S)—N-((2S,6S,8AS,14AS,20S,23AS)-2,6-DIMETHYL-5,8,14,19,23-PENTAOXOOCTADECAHYDRO-1H,5H,14H,19H-PYRIDO[2,1-I]DIPYRROLO[2,1-C:2′,1′-L][1]OXA[4,7,10,13]TETRAAZACYCLOHEXADECIN-20-YL)-2-(3-(4-ETHYLPHENYL)UREIDO)-3-(M-TOLYL)PROPANAMIDE] | 0.22 ± 0.1 µM | 0.313 µM (≈ 0.246 µg/mL) | 0.313 µM (≈ 0.246 µg/mL) | 0.625 µM (≈ 0.491 µg/mL) | 0.625 µM (≈ 0.491 µg/mL) | >20 µM | – | – | – | –
2 | Cc1cccc(C[C@H](NC(=O)Nc2ccc(Cl)cc2)C(=O)N[C@H]2COC(=O)[C@@H]3C[C@H](C)CN3C(=O)[C@H](C)NC(=O)[C@@H]3CCCCN3C(=O)[C@@H]3CCCN3C2=O)c1 [Compound 53, (S)-2-(3-(4-CHLOROPHENYL)UREIDO)-N-((2S,6S,8AS,14AS,20S,23AS)-2,6-DIMETHYL-5,8,14,19,23-PENTAOXOOCTADECAHYDRO-1H,5H,14H,19H-PYRIDO[2,1-I]DIPYRROLO[2,1-C:2′,1′-L][1]OXA[4,7,10,13]TETRAAZACYCLOHEXADECIN-20-YL)-3-(M-TOLYL)PROPANAMIDE] | 0.67 ± 0.3 µM | – | – | – | – | >20 µM | 1.25 µM (≈ 0.99 µg/mL) | 5 µM (≈ 3.96 µg/mL) | 1.25 µM (≈ 0.99 µg/mL) | 2.5 µM (≈ 1.98 µg/mL)
3 | Cc1cccc(C[C@H](NC(=O)Nc2cccc(Cl)c2)C(=O)N[C@H]2COC(=O)[C@@H]3C[C@H](C)CN3C(=O)[C@H](C)NC(=O)[C@@H]3CCCCN3C(=O)[C@@H]3CCCN3C2=O)c1 [Compound 54, (S)-2-(3-(3-CHLOROPHENYL)UREIDO)-N-((2S,6S,8AS,14AS,20S,23AS)-2,6-DIMETHYL-5,8,14,19,23-PENTAOXOOCTADECAHYDRO-1H,5H,14H,19H-PYRIDO[2,1-I]DIPYRROLO[2,1-C:2′,1′-L][1]OXA[4,7,10,13]TETRAAZACYCLOHEXADECIN-20-YL)-3-(M-TOLYL)PROPANAMIDE] | 1.54 ± 1.4 µM | – | – | – | – | >20 µM | 5 µM (≈ 3.96 µg/mL) | 10 µM (≈ 7.92 µg/mL) | > 20 µM | > 20 µM
4 | CCc1ccc(NC(=O)N[C@@H](Cc2cccc(C)c2)C(=O)N[C@H]2COC(=O)[C@@H]3CCCN3C(=O)[C@H](C)NC(=O)[C@@H]3CCCCN3C(=O)[C@@H]3C[C@@H](O)CN3C2=O)cc1 [Compound 55, (S)-2-(3-(4-ETHYLPHENYL)UREIDO)-N-((6S,8AS,14AS,16R,20S,23AS)-16-HYDROXY-6-METHYL-5,8,14,19,23-PENTAOXOOCTADECAHYDRO-1H,5H,14H,19H-PYRIDO[2,1-I]DIPYRROLO[2,1-C:2′,1′-L][1]OXA[4,7,10,13]TETRAAZACYCLOHEXADECIN-20-YL)-3-(M-TOLYL)PROPANAMIDE] | 1.05 ± 1 µM | 2.5 µM (≈ 1.97 µg/mL) | 2.5 µM (≈ 1.97 µg/mL) | 5 µM (≈ 3.94 µg/mL) | 2.5 µM (≈ 1.97 µg/mL) | >20 µM | – | – | – | –
5 | Cc1cccc(C[C@H](NC(=O)Nc2ccc(Cl)cc2)C(=O)N[C@H]2COC(=O)[C@@H]3CCCN3C(=O)[C@H](C)NC(=O)[C@@H]3CCCCN3C(=O)[C@@H]3C[C@@H](O)CN3C2=O)c1 [Compound 56, (S)-2-(3-(4-CHLOROPHENYL)UREIDO)-N-((6S,8AS,14AS,16R,20S,23AS)-16-HYDROXY-6-METHYL-5,8,14,19,23-PENTAOXOOCTADECAHYDRO-1H,5H,14H,19H-PYRIDO[2,1-I]DIPYRROLO[2,1-C:2′,1′-L][1]OXA[4,7,10,13]TETRAAZACYCLOHEXADECIN-20-YL)-3-(M-TOLYL)PROPANAMIDE] | 1.33 ± 2.5 µM | – | – | – | – | >20 µM | 10 µM (≈ 7.94 µg/mL) | 2.5 µM (≈ 1.99 µg/mL) | 5 µM (≈ 3.97 µg/mL) | 2.5 µM (≈ 1.99 µg/mL)
6 | Cc1cccc(C[C@H](NC(=O)Nc2cccc(Cl)c2)C(=O)N[C@H]2COC(=O)[C@@H]3CCCN3C(=O)[C@H](C)NC(=O)[C@@H]3CCCCN3C(=O)[C@@H]3C[C@@H](O)CN3C2=O)c1 [Compound 57, (S)-2-(3-(3-CHLOROPHENYL)UREIDO)-N-((6S,8AS,14AS,16R,20S,23AS)-16-HYDROXY-6-METHYL-5,8,14,19,23-PENTAOXOOCTADECAHYDRO-1H,5H,14H,19H-PYRIDO[2,1-I]DIPYRROLO[2,1-C:2′,1′-L][1]OXA[4,7,10,13]TETRAAZACYCLOHEXADECIN-20-YL)-3-(M-TOLYL)PROPANAMIDE] | 1.88 ± 2.4 µM | – | – | – | – | >20 µM | 10 µM (≈ 7.94 µg/mL) | 10 µM (≈ 7.94 µg/mL) | 20 µM (≈ 15.9 µg/mL) | 10 µM (≈ 7.94 µg/mL)
7 | Cc1cccc(C[C@H](NC(=O)Nc2cccc(Cl)c2)C(=O)N[C@@H]2C(=O)N3C[C@H](O)C[C@H]3C(=O)N3CCCC[C@H]3C(=O)N[C@@H](C)C(=O)N3CCC[C@H]3C(=O)O[C@H]2C)c1 [Compound 60, (S)-2-(3-(3-CHLOROPHENYL)UREIDO)-N-((6S,8AS,14AS,16R,20S,21S,23AS)-16-HYDROXY-6,21-DIMETHYL-5,8,14,19,23-PENTAOXOOCTADECAHYDRO-1H,5H,14H,19H-PYRIDO[2,1-I]DIPYRROLO[2,1-C:2′,1′-L][1]OXA[4,7,10,13]TETRAAZACYCLOHEXADECIN-20-YL)-3-(M-TOLYL)PROPANAMIDE] ({NH(3-Cl-phenyl)-CO}-[Phe(3-Me)][aThr][Hyp][Pip]AP; ester 2-C) | 1.47 ± 1.1 µM | – | – | – | – | – | 5 µM (≈ 4.04 µg/mL) | > 20 µM | > 20 µM | 10 µM (≈ 8.08 µg/mL)
